Consider two molecules from publication PMC7311950, “Potent Tetrahydroquinolone Eliminates Apicomplexan Parasites” (Frontiers in Cellular and Infection Microbiology, 2020).

A short description of series [1]: Caco-2 permeability assay. It is filed as in vitro ADME. As to conditions: human, A-B, read-out: Caco-2 permeability PappA-B. A general note: Caco-2 cells form a polarised layer with tight junctions and transporters.
The next series in a line: PPB (human). It is filed as in vitro ADME. As to conditions: plasma.
Series [2] has as its system P-glycoprotein (P-gp, MDR1). Kind of series: in vitro. Conditions: dog, MDCK-MDR1. How it is done: (§1) The effects of changing R1 as 7-Et, 7-Me, 6-CF3, or 6-Me on activity against RH strain tachyzoites, kinetic solubility, and metabolic stability were compared. Kinetic solubility and metabolic stability in human or murine liver microsomes were measured. The hERG (human Ether-à-go-go-Related) liability was also determined. The hERG gene (KCNH2) encodes a protein Kv11.1, the alpha subunit of a potassium ion channel. This channel conducts the rapid component of the delayed rectifier potassium current, IKr, which is critical for repolarization of cardiac action potentials. A reduction in hERG currents from adverse drug effects can lead to long QT interval syndromes. These syndromes are characterized by action potential prolongation, lengthening of the QT interval on surface EKG, and an increased risk for “torsade de pointes” arrhythmias and sudden death. The MDCK-MDR1 Permeability Assay was also performed. MDCK-MDR1 refers to the ability of a compound to permeate across membranes of MDCK-MDR1 (Madin Darby canine kidney [MDCK] cells with the MDR1 gene [ABCB1], the gene encoding for the efflux protein, P-glycoprotein (P-gp)) in vitro. Assessing transport in both directions (apical to basolateral and basolateral to apical) across the cell monolayers enables an efflux ratio to be determined. […] This provides a prediction of blood brain barrier (BBB) penetration potential/permeability and efflux ratio. Effect in CACO-2 (Colon Adenocarcinoma cells) as a permeability assay and on cytochrome P450 (CYP 450) were also determined. CYP enzymes catalyze oxidative biotransformation (phase 1 metabolism) of most drugs. CYP enzymes, bind to membranes in a cell (cyto) and contain a heme pigment (chrome and P) that absorbs light at a wavelength of 450 nm when exposed to carbon monoxide. Metabolism of a drug by CYP enzymes is a major source of variability in drug effect. These were measured by Chem Partners. The relative effect on HFF and parasite enzymes also were compared.
(§2) In vitro absorption, distribution, metabolism, excretion, and toxicity (ADMET) analyses of the THQ compounds were outsourced to ChemPartner Shanghai Ltd. ELQ-271 (synthesized in-house) was tested as a comparison.

For series [3], the target named is T1, P. falciparum bc1 complex cytochrome c reductase (Pfbc1) (Plasmodium falciparum, UniProt Q02768).
T1 construct: Parasite extract was then prepared by disruption with a sonicating probe; endogenous in cells; host or cells: P. falciparum strain 3D7 blood-stage culture, sonicated parasite extract
T1 sequence (Q02768 1-376): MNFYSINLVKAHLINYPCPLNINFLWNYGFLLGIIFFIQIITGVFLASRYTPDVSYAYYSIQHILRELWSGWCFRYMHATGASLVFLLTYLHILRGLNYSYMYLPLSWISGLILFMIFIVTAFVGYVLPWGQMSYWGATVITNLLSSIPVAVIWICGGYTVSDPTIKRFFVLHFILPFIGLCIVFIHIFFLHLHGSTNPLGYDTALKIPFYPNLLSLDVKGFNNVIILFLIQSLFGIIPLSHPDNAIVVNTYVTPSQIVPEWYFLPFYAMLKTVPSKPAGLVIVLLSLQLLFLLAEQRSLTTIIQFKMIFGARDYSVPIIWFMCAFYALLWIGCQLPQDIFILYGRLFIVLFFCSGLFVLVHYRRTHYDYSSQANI
Kind of series: Pfbc1 native assay (cytochrome c reduction by parasite extract). It is filed as biochemical. As to conditions: atovaquone 1 μM positive control, X ± S.D., N = 4. How it is done:
P. falciparum 3D7 strain were obtained from the Liverpool School of Tropical Medicine. Protease cocktail inhibitor was obtained from Roche. Bradford protein assay dye reagent was obtained from Bio-Rad. All other reagents were obtained from Sigma-Aldrich. Decylubiquinol was produced as per Fisher et al. ([2009]). In brief, 25 mg of decylubiquinone were dissolved in 400 μL of nitrogen-saturated hexane. An equal volume of aqueous 1 M sodium dithionite was added, and the mixture vortexed until colorless. The organic phase containing the decylubiquinol was collected, the solvent was evaporated under N2 and the decylubiquinol finally dissolved in 100 μL of 96% ethanol (acidified with 10 mM HCl). Concentrations of decylubiquinol was determined spectrophotometrically on a Cary 300 Bio UV/visible spectrophotometer (Varian, UK) from absolute spectra, using ε288−−320 = 8.1 mM^−1.cm^−1. Decylubiquinol was stored at −80°C and used within 2 weeks. […]
The protocol for the preparation of parasite extract was adapted from Fisher et al. ([2009]). […] The protein concentration of the parasite extract was determined by Bradford protein assay (Bio-Rad).
P. falciparum bc1 complex cytochrome c reductase (Pfbc1) activity was measured by monitoring cytochrome c reduction at 550 vs. 542 nm using a Cary 300 Bio UV-Visible Spectrophotometer (Varian, UK), using a protocol adapted from Fisher et al. ([2009]). […]

Series [4] deals with P-glycoprotein (P-gp, MDR1/ABCB1). Kind of series: in vitro. As to conditions: dog, MDCK-MDR1. How it is done: as §1, §2

Where only a bound is given, the exact number is not on record here.

Consider `Cc1[nH]c2c(c(=O)c1-c1ccc(Oc3ccc(OC(F)(F)F)cc3)cc1)CCCC2` [JAG21, 2-Methyl-3-(4-(4-(Trifluoromethoxy)Phenoxy)Phenyl)-5,6,7,8-Tetrahydroquinolin-4-One], for which the Papp in series [1] and in series [2] was over 10 ×10⁻⁶ cm/s throughout. Further, the fraction unbound in “PPB (human)” was 0.001. Besides, the efflux ratio in series [2] is under 1.5. In series [3], this molecule had an inhibition at 1 µM of 86.4 ± 3.2%.

On to `Cc1[nH]c2c(c(=O)c1-c1ccc(Oc3ccc(Cl)cc3)cc1)CCCC2` [JAG50], for which, in series [4], the Papp is over 10 ×10⁻⁶ cm/s and the efflux ratio was under 1.5.

The fraction unbound is the share of the substance not bound to proteins or other matrix. Higher therefore signals much free substance. In general, efflux ratio refers to a quotient of directional permeabilities that is used to spot active efflux. The inhibition is the relative decrease from the control value, in per cent.
